Values quoted from earlier work, collected in patent US20250108061A1, “METHOD FOR TREATING ENDOMETRIOSIS AND PROVIDING EFFECTIVE CONTRACEPTION” (CHEMO RESEARCH, S.L., priority 2021, published 2025).

Experiments:
women [1] = system: women
women [2] = conditions: at high dosages (5-15 mg/daily)

Row | SMILES | ovulation inhibition / ovarian activity (women [1]; 2 mg daily) | dosage necessary for ovulation inhibition (women [1]; given continuously over 28 days) [mg/daily] | androgenic side effects (women [2])
1 | C[C@]12CCC3=C4CCC(=O)C=C4CC[C@H]3[C@@H]1CC[C@@]2(O)CC#N [DNG, Dienogest] | provides ovulation inhibition, but ovarian activity is not completely suppressed | – | –
2 | C#C[C@]1(OC(C)=O)CC[C@H]2[C@@H]3CCC4=CC(=O)CC[C@@H]4[C@H]3CC[C@@]21C [NETA, norethisterone acetate] | – | 0.35 | can produce androgenic side effects, such as acne, hirsutism, weight gain and voice changes of slight severity in some women
